Patent US20070092444A1, “Inhibition of inward sodium currents in cancer” (priority 2003, published 2007)

What was measured:
[1] = system: inward currents in D54-MG glioma cells; experiment: Whole-cell patch clamp, D54-MG glioma cells; assay type: cell-based, human; details: 100 μM amiloride
Experimental: FIGS. 7A-7C show representative whole-cell patch clamp recordings.
The amiloride-sensitive inward Na^+ currents are measured regardless of whether ASIC2 is absent or present (FIGS. 7A-D). Whole-cell patch clamp recordings were obtained from U87-MG, SK-MG, and D54-MG glioma cells in the basal state. […] This inhibition of the inward current occurred regardless of the absence or presence of ASIC2 mRNA (FIG. 7D) (as detected by RT-PCR as described above).

[2] = target: T1, ASIC1 (Homo sapiens, UniProt P78348); experiment: Acid-activated currents in voltage-clamped Xenopus oocytes expressing ASIC1; assay type: cell-based; details: 400 μM amiloride; pHo 4.0; −60 mV
T1 sequence (P78348 1-528): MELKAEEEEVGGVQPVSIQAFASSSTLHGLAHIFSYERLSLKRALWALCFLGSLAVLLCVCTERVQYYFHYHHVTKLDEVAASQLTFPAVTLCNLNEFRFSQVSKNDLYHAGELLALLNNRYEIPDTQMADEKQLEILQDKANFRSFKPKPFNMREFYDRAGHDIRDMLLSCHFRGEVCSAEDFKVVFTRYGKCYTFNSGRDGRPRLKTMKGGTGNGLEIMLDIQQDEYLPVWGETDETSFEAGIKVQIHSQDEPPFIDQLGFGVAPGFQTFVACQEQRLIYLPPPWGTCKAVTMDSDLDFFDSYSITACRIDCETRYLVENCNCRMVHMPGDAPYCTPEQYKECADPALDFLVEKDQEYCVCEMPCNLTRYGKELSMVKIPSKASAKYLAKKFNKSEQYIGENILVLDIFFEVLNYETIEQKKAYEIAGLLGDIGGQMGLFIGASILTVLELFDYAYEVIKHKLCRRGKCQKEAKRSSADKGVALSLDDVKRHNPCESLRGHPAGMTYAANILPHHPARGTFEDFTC
Excerpt: FIGS. 8A-C show acid-activated ASIC currents in Xenopus oocytes. ASIC 2 (FIG. 8A), ASIC1 (FIG. 8B) and the combination of ASIC2 and ASIC1 (FIG. 8C) were examined. […] Each oocyte served as its own control.
(§1) Membrane potential was held at −60 mV, and the pHo was step decreased to 4.0 for 10 s, and then returned to 7.4 for 30 s before repeating the sequence.
Xenopus oocytes were used to express ASIC1 and ASIC2 mRNA individually and in combination. Oocyte preparation, cRNA injection, and two-electrode voltage clamp recordings were performed as described (33,67-69).
as §1

[3] = system: Na^+/H^+ exchange; details: glial / glioma cells; references 72, 73; cited from earlier work
[4] = system: D54-MG glioma cells; experiment: Transwell Migration Assay, D54-MG cells; assay type: cell-based, human; details: 3 h, vitronectin
Experimental: 5-8 μm polycarbonate Transwell filters were coated on the lower surface with or vitronectin ([…] in PBS). […] of D54MG cells (400,000 cells/ml were added to the upper chamber), in the presence or absence of benzamil, and migration was allowed to proceed for 3 hours. Migration was determined according to standard procedures (120). N-amidino-3,5-diamino-pyrazinecarboxamide was used as a control.
To begin to investigate the role of the inward Na^+ conductance in the invasive behavior of tumor cells, a Transwell Migration Assay was used to assess cell chemotaxis and invasiveness (FIG. 17). D54-MG cells were plated on the upper side of a filter insert perforated with 5-8 μm holes, and induced to migrate through these pores toward the extracellular matrix protein vitronectin (coated on the underside of the filter). Benzamil, at 10, 20, 50, or 100 μM, was added to both chambers at time 0. After a 3 h migration time, cells were fixed, stained with crystal violet, and counted. BSA-coated filter inserts were used as negative controls. […]
Approximately 10,000 cells were added to the upper side of a filter insert perforated with 5-8 μm holes, and induced to migrate through these pores toward the extracellular matrix protein vitronectin (coated on the underside of the filter). […] Cells were counted on an inverted microscope, averaging five fields per Transwell chamber. […]

[5] = system: U87-MG cells; experiment: Cell growth in culture; assay type: cell-based, human; details: 80 nM PcTX1
[6] = system: U251-MG brain tumors; experiment: Intracranial U251-MG xenograft in SCID mice; assay type: in vivo
Experimental: After sacrifice, brain tissue was removed, embedded with paraffin and sectioned (10 μm thick). Sections were stained using hemotoxylin and eosin. Magnifications are 1×, 4× and 20× as indicated.
In these studies, 10^6 U251-MG cells were injected directly into the right hemisphere of thirty SCID mice (FIGS. 27A-C). […] On sacrifice of the animals, the brain of each mouse was sectioned and stained with hemotoxylin and eosin. Do to the nature of the study, no difference in survival between the three groups was noted.

N=C(N)NC(=O)c1nc(Cl)c(N)nc1N [amiloride]
inhibition of inward currents [1]: inhibited | inhibition of acid-activated currents [2]: inhibited | inhibition of Na^+/H^+ exchange [3]: can inhibit

Psalmotoxin 1 [PcTX1]
diminished ability to migrate through the filter [4]: > 90% | growth of cells in culture [5]: significantly inhibited | survival ([6]; between the three groups): no difference | tumor foci within the injected hemisphere ([6]; injection once a week for three weeks): one | tumor margins ([6]; injection once a week for three weeks, 20× the in vitro inhibitory dose, versus saline or scrambled peptide): more clearly delineated
